Source: ChEMBL document CHEMBL4414672, “Synthesis of certain benzothieno[3,2-d]pyrimidine derivatives as a selective SIRT2 inhibitors” (Eur J Med Chem, 2020)

Experiments:
Format in all cases: functional
HL-60(TB) = experiment: Growth inhibition of human HL-60(TB) cells at 10^-5 M incubated for 48 hrs by sulforhodamine B assay; conditions: HL-60, 48 h, read-out: GI
K562 = experiment: Growth inhibition of human K562 cells at 10^-5 M incubated for 48 hrs by sulforhodamine B assay; conditions: K562, 48 h, read-out: GI
MOLT-4 = experiment: Growth inhibition of human MOLT4 cells at 10^-5 M incubated for 48 hrs by sulforhodamine B assay; conditions: MOLT-4, 48 h, read-out: GI
SR = experiment: Growth inhibition of human SR cells at 10^-5 M incubated for 48 hrs by sulforhodamine B assay; conditions: read-out: GI
HOP-62 = experiment: Growth inhibition of human HOP62 cells at 10^-5 M incubated for 48 hrs by sulforhodamine B assay; conditions: HOP-62, 48 h, read-out: GI
NCI-H226 = experiment: Growth inhibition of human NCI-H226 cells at 10^-5 M incubated for 48 hrs by sulforhodamine B assay; conditions: NCI-H226, 48 h, read-out: GI
NCI-H23 = experiment: Growth inhibition of human NCI-H23 cells at 10^-5 M incubated for 48 hrs by sulforhodamine B assay; conditions: NCI-H23, 48 h, read-out: GI
NCI-H322M = experiment: Growth inhibition of human NCI-H322M cells at 10^-5 M incubated for 48 hrs by sulforhodamine B assay; conditions: read-out: GI
NCI-H460 = experiment: Growth inhibition of human NCI-H460 cells at 10^-5 M incubated for 48 hrs by sulforhodamine B assay; conditions: NCI-H460, 48 h, read-out: GI
COLO 205 = experiment: Growth inhibition of human COLO205 cells at 10^-5 M incubated for 48 hrs by sulforhodamine B assay; conditions: COLO 205, 48 h, read-out: GI
HCT-15 = experiment: Growth inhibition of human HCT15 cells at 10^-5 M incubated for 48 hrs by sulforhodamine B assay; conditions: HCT-15, 48 h, read-out: GI
SW-620 = experiment: Growth inhibition of human SW620 cells at 10^-5 M incubated for 48 hrs by sulforhodamine B assay; conditions: SW-620, 48 h, read-out: GI
SF-268 = experiment: Growth inhibition of human SF268 cells at 10^-5 M incubated for 48 hrs by sulforhodamine B assay; conditions: SF-268, 48 h, read-out: GI
SF-295 = experiment: Growth inhibition of human SF295 cells at 10^-5 M incubated for 48 hrs by sulforhodamine B assay; conditions: SF-295, 48 h, read-out: GI
SF-539 = experiment: Growth inhibition of human SF539 cells at 10^-5 M incubated for 48 hrs by sulforhodamine B assay; conditions: SF-539, 48 h, read-out: GI
SNB-19 = experiment: Growth inhibition of human SNB19 cells at 10^-5 M incubated for 48 hrs by sulforhodamine B assay; conditions: SNB-19, 48 h, read-out: GI
Malme-3M = experiment: Growth inhibition of human MALME-3M cells at 10^-5 M incubated for 48 hrs by sulforhodamine B assay; conditions: read-out: GI
M14 = experiment: Growth inhibition of human M14 cells at 10^-5 M incubated for 48 hrs by sulforhodamine B assay; conditions: M14, 48 h, read-out: GI
SK-MEL-2 = experiment: Growth inhibition of human SK-MEL-2 cells at 10^-5 M incubated for 48 hrs by sulforhodamine B assay; conditions: SK-MEL-2, 48 h, read-out: GI
SK-MEL-28 = experiment: Growth inhibition of human SK-MEL-28 cells at 10^-5 M incubated for 48 hrs by sulforhodamine B assay; conditions: SK-MEL-28, 48 h, read-out: GI
SK-MEL-5 = experiment: Growth inhibition of human SK-MEL-5 cells at 10^-5 M incubated for 48 hrs by sulforhodamine B assay; conditions: SK-MEL-5, 48 h, read-out: GI
UACC-62 = experiment: Growth inhibition of human UACC62 cells at 10^-5 M incubated for 48 hrs by sulforhodamine B assay; conditions: UACC-62, 48 h, read-out: GI
IGROV-1 = experiment: Growth inhibition of human IGROV1 cells at 10^-5 M incubated for 48 hrs by sulforhodamine B assay; conditions: IGROV-1, 48 h, read-out: GI
OVCAR-8 = experiment: Growth inhibition of human OVCAR8 cells at 10^-5 M incubated for 48 hrs by sulforhodamine B assay; conditions: OVCAR-8, 48 h, read-out: GI
SK-OV-3 = experiment: Growth inhibition of human SKOV3 cells at 10^-5 M incubated for 48 hrs by sulforhodamine B assay; conditions: SK-OV-3, 48 h, read-out: GI
786-0 = experiment: Growth inhibition of human 786-0 cells at 10^-5 M incubated for 48 hrs by sulforhodamine B assay; conditions: 786-0, 48 h, read-out: GI
A498 = experiment: Growth inhibition of human A498 cells at 10^-5 M incubated for 48 hrs by sulforhodamine B assay; conditions: A498, 48 h, read-out: GI
ACHN = experiment: Growth inhibition of human ACHN cells at 10^-5 M incubated for 48 hrs by sulforhodamine B assay; conditions: read-out: GI
CAKI-1 = experiment: Growth inhibition of human Caki1 cells at 10^-5 M incubated for 48 hrs by sulforhodamine B assay; conditions: CAKI-1, 48 h, read-out: GI
RXF 393 = experiment: Growth inhibition of human RXF393 cells at 10^-5 M incubated for 48 hrs by sulforhodamine B assay; conditions: RXF 393, 48 h, read-out: GI
TK-10 = experiment: Growth inhibition of human TK10 cells at 10^-5 M incubated for 48 hrs by sulforhodamine B assay; conditions: TK-10, 48 h, read-out: GI
UO-31 = experiment: Growth inhibition of human UO31 cells at 10^-5 M incubated for 48 hrs by sulforhodamine B assay; conditions: UO-31, 48 h, read-out: GI
PC-3 = experiment: Growth inhibition of human PC3 cells at 10^-5 M incubated for 48 hrs by sulforhodamine B assay; conditions: PC-3, 48 h, read-out: GI
MDA-MB-231 = experiment: Growth inhibition of human MDA-MB-231 cells at 10^-5 M incubated for 48 hrs by sulforhodamine B assay; conditions: MDA-MB-231, 48 h, read-out: GI
Hs-578T = experiment: Growth inhibition of human Hs 578T cells at 10^-5 M incubated for 48 hrs by sulforhodamine B assay; conditions: read-out: GI
BT-549 = experiment: Growth inhibition of human BT549 cells at 10^-5 M incubated for 48 hrs by sulforhodamine B assay; conditions: BT-549, 48 h, read-out: GI
T47D = experiment: Growth inhibition of human T47D cells at 10^-5 M incubated for 48 hrs by sulforhodamine B assay; conditions: read-out: GI
MDA-MB-468 = experiment: Growth inhibition of human MDA-MB-468 cells at 10^-5 M incubated for 48 hrs by sulforhodamine B assay; conditions: MDA-MB-468, 48 h, read-out: GI

## O=C1Nc2c(sc3ccc(Cl)cc23)C(c2cccc(Br)c2)N1 (centres undefined)
HL-60(TB)
  inhibition of growth at 10 µM: 7.88%
K562
  inhibition of growth at 10 µM: 6.28%
MOLT-4
  inhibition of growth at 10 µM: 5.84%
SR
  inhibition of growth at 10 µM: 20.9%
HOP-62
  inhibition of growth at 10 µM: 22.2%
NCI-H226
  inhibition of growth at 10 µM: 3.66%
NCI-H23
  inhibition of growth at 10 µM: 9.39%
NCI-H322M
  inhibition of growth at 10 µM: 5.33%
NCI-H460
  inhibition of growth at 10 µM: -0.32%
COLO 205
  inhibition of growth at 10 µM: -4.67%
HCT-15
  inhibition of growth at 10 µM: -0.85%
SW-620
  inhibition of growth at 10 µM: -0.2%
SF-268
  inhibition of growth at 10 µM: 0.19%
SF-295
  inhibition of growth at 10 µM: -0.96%
SF-539
  inhibition of growth at 10 µM: -0.96%
SNB-19
  inhibition of growth at 10 µM: 0.22%
Malme-3M
  inhibition of growth at 10 µM: 2.75%
M14
  inhibition of growth at 10 µM: 1.96%
SK-MEL-2
  inhibition of growth at 10 µM: -9.69%
SK-MEL-28
  inhibition of growth at 10 µM: -12.8%
SK-MEL-5
  inhibition of growth at 10 µM: 3.66%
UACC-62
  inhibition of growth at 10 µM: 8.42%
IGROV-1
  inhibition of growth at 10 µM: 20.8%
OVCAR-8
  inhibition of growth at 10 µM: -2.63%
SK-OV-3
  inhibition of growth at 10 µM: 19.7%
786-0
  inhibition of growth at 10 µM: -1.2%
A498
  inhibition of growth at 10 µM: -8.2%
ACHN
  inhibition of growth at 10 µM: 5.37%
CAKI-1
  inhibition of growth at 10 µM: 17.7%
RXF 393
  inhibition of growth at 10 µM: -18.1%
TK-10
  inhibition of growth at 10 µM: -23.4%
UO-31
  inhibition of growth at 10 µM: -23.4%
PC-3
  inhibition of growth at 10 µM: 0.46%
MDA-MB-231
  inhibition of growth at 10 µM: 6.83%
Hs-578T
  inhibition of growth at 10 µM: -5.56%
BT-549
  inhibition of growth at 10 µM: -17.5%
T47D
  inhibition of growth at 10 µM: 13%
MDA-MB-468
  inhibition of growth at 10 µM: -26.3%

## O=C1Nc2c(sc3ccc(Cl)cc23)C(c2ccccc2O)N1 (centres undefined)
HL-60(TB)
  inhibition of growth at 10 µM: 1.61%
K562
  inhibition of growth at 10 µM: 14.7%
MOLT-4
  inhibition of growth at 10 µM: 14.7%
SR
  inhibition of growth at 10 µM: 19.1%
HOP-62
  inhibition of growth at 10 µM: 13.9%
NCI-H226
  inhibition of growth at 10 µM: 18.7%
NCI-H23
  inhibition of growth at 10 µM: 13.5%
NCI-H322M
  inhibition of growth at 10 µM: 7.77%
NCI-H460
  inhibition of growth at 10 µM: 6.65%
COLO 205
  inhibition of growth at 10 µM: -9.33%
HCT-15
  inhibition of growth at 10 µM: 2%
SW-620
  inhibition of growth at 10 µM: -1.05%
SF-268
  inhibition of growth at 10 µM: 7.91%
SF-295
  inhibition of growth at 10 µM: 3.22%
SF-539
  inhibition of growth at 10 µM: 3.22%
SNB-19
  inhibition of growth at 10 µM: 2.91%
Malme-3M
  inhibition of growth at 10 µM: 15.8%
M14
  inhibition of growth at 10 µM: 2.49%
SK-MEL-2
  inhibition of growth at 10 µM: 2.38%
SK-MEL-28
  inhibition of growth at 10 µM: -7.33%
SK-MEL-5
  inhibition of growth at 10 µM: 4.49%
UACC-62
  inhibition of growth at 10 µM: 13.9%
IGROV-1
  inhibition of growth at 10 µM: 19.7%
OVCAR-8
  inhibition of growth at 10 µM: 3.5%
SK-OV-3
  inhibition of growth at 10 µM: 4.45%
786-0
  inhibition of growth at 10 µM: 1.65%
A498
  inhibition of growth at 10 µM: 17.4%
ACHN
  inhibition of growth at 10 µM: 9.18%
CAKI-1
  inhibition of growth at 10 µM: 18.5%
RXF 393
  inhibition of growth at 10 µM: -4.74%
TK-10
  inhibition of growth at 10 µM: -18.6%
UO-31
  inhibition of growth at 10 µM: -18.6%
PC-3
  inhibition of growth at 10 µM: 15.2%
MDA-MB-231
  inhibition of growth at 10 µM: 19.7%
Hs-578T
  inhibition of growth at 10 µM: 3.74%
BT-549
  inhibition of growth at 10 µM: 4.41%
T47D
  inhibition of growth at 10 µM: 18.1%
MDA-MB-468
  inhibition of growth at 10 µM: 0.19%

## N=C1Nc2c(sc3ccc(Cl)cc23)C(c2ccc3ccccc3c2)N1 (centres undefined)
HL-60(TB)
  inhibition of growth at 10 µM: -3.45%
K562
  inhibition of growth at 10 µM: 6.06%
MOLT-4
  inhibition of growth at 10 µM: 10.9%
SR
  inhibition of growth at 10 µM: -0.62%
HOP-62
  inhibition of growth at 10 µM: 13.8%
NCI-H226
  inhibition of growth at 10 µM: 6.58%
NCI-H23
  inhibition of growth at 10 µM: 5.66%
NCI-H322M
  inhibition of growth at 10 µM: 6.59%
NCI-H460
  inhibition of growth at 10 µM: 13.2%
COLO 205
  inhibition of growth at 10 µM: -6.53%
HCT-15
  inhibition of growth at 10 µM: 3.37%
SW-620
  inhibition of growth at 10 µM: 0.99%
SF-268
  inhibition of growth at 10 µM: -5.53%
SF-295
  inhibition of growth at 10 µM: -3.49%
SF-539
  inhibition of growth at 10 µM: -2.62%
SNB-19
  inhibition of growth at 10 µM: 18.1%
Malme-3M
  inhibition of growth at 10 µM: 1.8%
M14
  inhibition of growth at 10 µM: -0.34%
SK-MEL-2
  inhibition of growth at 10 µM: -16.2%
SK-MEL-28
  inhibition of growth at 10 µM: 2.06%
SK-MEL-5
  inhibition of growth at 10 µM: -0.53%
UACC-62
  inhibition of growth at 10 µM: 6%
IGROV-1
  inhibition of growth at 10 µM: -4.93%
OVCAR-8
  inhibition of growth at 10 µM: -3.15%
SK-OV-3
  inhibition of growth at 10 µM: -0.13%
786-0
  inhibition of growth at 10 µM: 5.33%
A498
  inhibition of growth at 10 µM: 6.65%
ACHN
  inhibition of growth at 10 µM: 25.9%
CAKI-1
  inhibition of growth at 10 µM: -12.5%
RXF 393
  inhibition of growth at 10 µM: 0.36%
TK-10
  inhibition of growth at 10 µM: 30.2%
UO-31
  inhibition of growth at 10 µM: 14.6%
PC-3
  inhibition of growth at 10 µM: -10%
MDA-MB-231
  inhibition of growth at 10 µM: -0.83%
Hs-578T
  inhibition of growth at 10 µM: 14.6%
BT-549
  inhibition of growth at 10 µM: 5.47%
T47D
  inhibition of growth at 10 µM: -15.3%
MDA-MB-468
  inhibition of growth at 10 µM: -6.39%
